Laboratory results as given in US20240279202A1 (NURIX THERAPEUTICS, INC., priority 2021, published 2024).

Experiments:
ITK = molecular target: T1, ITK (Homo sapiens, UniProt Q08881); test: ITK degradation MSD (Meso Scale Discovery) assay; assay type: cell-based; set-up: either human Jurkat (Clone E6-1 ATCC TIB-152) or Motl4 (ATCC CRL-1552), were plated; endogenous in cells; host or cells: Jurkat clone E6-1 (ATCC TIB-152) or Molt4 (ATCC CRL-1552); settings: Jurkat or Molt4 cells, 4 or 6 hrs
T1 sequence (Q08881 1-620): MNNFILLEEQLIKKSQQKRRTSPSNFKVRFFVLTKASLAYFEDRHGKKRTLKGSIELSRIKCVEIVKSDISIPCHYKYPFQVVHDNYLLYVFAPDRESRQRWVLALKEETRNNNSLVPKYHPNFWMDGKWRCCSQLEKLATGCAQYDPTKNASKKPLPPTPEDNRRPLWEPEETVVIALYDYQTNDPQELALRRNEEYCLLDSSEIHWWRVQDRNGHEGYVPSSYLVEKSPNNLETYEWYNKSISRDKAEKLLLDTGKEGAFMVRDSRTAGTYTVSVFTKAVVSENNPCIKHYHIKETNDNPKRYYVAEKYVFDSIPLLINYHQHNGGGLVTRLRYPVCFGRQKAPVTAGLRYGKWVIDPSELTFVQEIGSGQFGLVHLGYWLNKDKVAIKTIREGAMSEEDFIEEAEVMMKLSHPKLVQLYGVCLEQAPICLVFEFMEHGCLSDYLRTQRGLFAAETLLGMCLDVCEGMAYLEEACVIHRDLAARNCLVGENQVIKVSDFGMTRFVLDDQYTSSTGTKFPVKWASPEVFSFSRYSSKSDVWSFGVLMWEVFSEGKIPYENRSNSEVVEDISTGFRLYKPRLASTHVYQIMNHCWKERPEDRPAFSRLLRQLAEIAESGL
Procedure: ITK Degradation MSD (Meso Scale Discovery) Assay Compound dilution series (7-point, 5 fold dilutions in DMSO, rows B-H with replicate in Column 1⁄2, 3⁄4, 5⁄6, 7,8, at 2000× the final required concentrations were prepared in 96 well plates (Falcon, cat. no. 353077). Row A, Column 1-8 were control DMSO. The 2000× solutions ranged from 2 mM to 128 nM (final assay concentration range 1 μM to […]). The 2000× solutions were added to cells in […], for a final DMSO concentration of 0.5% and final assay compound concentration of 1×. For the cells, either human Jurkat (Clone E6-1 ATCC TIB-152) or Motl4 (ATCC CRL-1552), were plated at 1×10^6 cells/mL, 100 μL/well ([…]) in complete RPMI (10% FBS, 1% L-glutamine). Cells were incubated for 4 or 6 hrs at 32° C./6% CO2. Following incubation, plates were centrifuged at 1200 rpm for 5 min. supernatant was removed and 50 μL of cell lysis buffer ((MSD Tris lysis buffer (R60TX), Complete Mini EDTA-free protease inhibitor (Sigma 11836170001), Protease Inhibitor Cocktail (Sigma, P2714), Phosphatase Inhibitor Cocktail 2 and 3 (Sigma, P5726 and P0044), and Benzonase (Sigma, E1014)) was added to each well. Plates were sealed and shook at 4° C. for 30 min. Plates were centrifuged and 45 μL was removed for plate assays. Assay plate preparation: Meso Scale Discovery (MSD) multi-array sm spot 96 well plates (Goat anti-Rabbit L^45-RA), were blocked with 3% BSA blocking buffer (3% Bovine Serum Albumin (Sigma A3059)+TBS 0.2% Tween-20) for 1 hr with gentle rocking at room temperature. Plates were then washed with 200 μL of 1× TBST (TBS 0.2% Tween-20) 3 times. After last wash, liquid was removed and 50 μL per well of capture antibody (abcam ITK Y402-ab32507) was added to plates at a 1:1000 dilution in blocking buffer (above). Plates were sealed and rocked at room temperature for 2 hrs. Plates were then washed 3 times with 200 μL of 1× TBST. After last wash, liquid was removed and 45 μL of cell lysate (from above) was added to each plate. Plates were sealed and rocked overnight at 4° C. Next day, cell lysates were removed, and assay plates were washed 3 times with 200 μL of 1× TBST. After last wash, liquid was removed and detection antibody (CST ITK (2F12) #2380) was added at 50 μL per well at a dilution of 1:1000 in blocking buffer. Plates were sealed and rocked at room temperature for 2 hrs. Plates were washed 3 times with 200 uL of 1× TBST. After last wash, liquid was removed, MSD Mouse anti-Rabbit sulfo tag (R32AC-1) was diluted to 1:1000 in blocking buffer. 50 μL was added to each well on the plate. Plates were sealed and incubated at room temperature for 1 hr. Plates were washed 3 times with 200 μL of 1× TBST. After last wash, liquid was removed and 150 μL of 1× MSD Read Buffer T ([…]) was then added to each well for ECL read out. For reading ECL signal, plate is read on a Meso Scale Discovery (MSD) MESO Sector S 600 plate reader. Percent ITK in then calculated as described below. Percent ITK remaining per sample was calculated as follows: [formula] Using Graphpad Prism, % ITK remaining values were plotted as a function of compound concentration. To determine DC50 and Dmax values, resulting curves were fit to the Prism curve-fitting equation “log(inhibitor) vs response-Variable slope (four parameters)” (reported best fit value IC50 used as DC50).

[1] = Mouse PK analysis (blood/plasma concentration after oral administration); assay type: in vivo; settings: mice; for concentration at 6 h: read-out: Cal. Conc. Total (μM) 6 h
Procedure: Compounds 1, 3, 7, and 42 were formulated and administered at 90 mg/kg to mice by oral gavage (PO). Blood was collected at defined time points (after 1, 2, and 6 hours) after compounds administration to determine PK parameters. Concentration increased through 6 hours. Six hours later mice were sacrificed and splenocytes were isolated and used to prepare protein lysates. Total protein levels were determined in the lysates using the BCA assay according to standard methods. Equal amounts of protein were then analyzed by Western blot to determine the level of ITK expression in each sample. ITK band intensities were measured using Alpha View software and the percent of ITK remaining in each test animal was determined relative to the mean of ITK levels in vehicle control samples.
Compounds 16, 17, and 18 were administered to mice orally. After 6 hours or 24 hours, splenocytes cells were harvested. ITK was evaluated by Western blotting. Plasma concentrations were determined by LC/MS/MS. Plasma samples were protein precipitated by addition of 100 μl of acetonitrile containing 50 ng/ml of internal standard. The resulting mixture was vortexed and centrifuged at 4000 RPM for 5 minutes. An aliquot of the resultant supernatant (75 μl) was added to 75 μl of 0.1% formic acid in water to constitute the final sample for injection. Samples were injected on a Shimadzu Exion LC Binary Gradient AD Pump HLPC system connected to a Sciex QTRAP 6500+mass spectrometer. Five μl of sample was injected onto a Waters Acquity UPLC BEH C18 column 130A (2.1×30 mm, […]) at 40° C. utilizing a flow rate of 700 μl/minute. Mobile Phase A was 0.1% formic acid in water and mobile phase B was 0.1% formic acid in acetonitrile. A linear gradient of 15-95% B over 1.0 minute was used. The mass spectrometer was operated in positive ion electrospray mode with multiple reaction monitoring for maximum sensitivity. Sciex Analyst software (version 1.6.3) was used for LC/MS/MS instrument control and acquisition. Compound concentration was determined against a standard curve of internal standard versus compound peak area ratio. Noncompartmental PK parameters were determined using […] software (version 8.2.0.4383) from Certara. Plasma concentrations from the LC/MS/MS analyses, dose, route of administration, and desired units were utilized for PK parameter calculations. […] FIG. 4C provides the concentration over time of compound 17 following in vivo oral administration in the 6 hour and 24 hour assays.
Cmax, Tmax and AUClast were all calculated using a WinNonLin Phoenix 64 v 8.2.0.4383. Using non-compartmental analysis, Tmax, Cmax and AUClast were determined as follows: • Tmax—Time of maximum observed concentration. • Cmax—Maximum observed concentration, occurring at time Tmax, as defined above. • AUClast—Area under the curve from the time of dosing to the time of the last measurable (positive) concentration (Tlast).

Row | DC50 (ITK) [nM] | Dmax (ITK) [%] | concentration at 2 h ([1]; mouse, plasma, oral, 90 mg/kg, 2 h, read-out: Cal. Conc. Total (μM) 2 h) [µM] | concentration at 6 h ([1]; mouse, plasma, oral, 90 mg/kg) [µM] | Cal. Conc. Total (μM) 2 h ([1]; 2 h) | Compound
1 | 0.2 | 84 | 0.0046 | 0.0024 | – | C[C@@]12Cc3[nH]nc(C(=O)Nc4cnn([C@H](c5ccccc5)C5CN(C(=O)C6CCN(c7ccc8c(c7)C(=O)N(C7CCC(=O)NC7=O)C8=O)CC6)C5)c4)c3C[C@@H]1C2(F)F (stereo partly drawn) [Compound 38, (4aS,5aR)-N-(1-((1S)-(1-(1-(2-(2,6-dioxopiperidin-3-yl)-1,3-dioxoisoindolin-5-yl)piperidine-4-carbonyl)azetidin-3-yl)(phenyl)methyl)-1H-pyrazol-4-yl)-5,5-difluoro-5a-methyl-1,4,4a,5,5a,6-hexahydrocyclopropafindazole-3-carboxamide]
2 | – | 46 | – | 0.009 | BQL | C[C@@]12Cc3[nH]nc(C(=O)Nc4cnn([C@H](c5ccccc5)C5CN(C(=O)C6CCN(c7ccc(C(=O)NC8CCC(=O)NC8=O)nc7)CC6)C5)c4)c3C[C@@H]1C2(F)F (stereo partly drawn) [Compound 40, (4aS,5aR)-N-(1-((1S)-(1-(1-(6-((2,6-dioxopiperidin-3-yl)carbamoyl)pyridin-3-yl)piperidine-4-carbonyl)azetidin-3-yl)(phenyl)methyl)-1H-pyrazol-4-yl)-5,5-difluoro-5a-methyl-1,4,4a,5,5a,6-hexahydrocyclopropa[f]indazole-3-carboxamide]
